In PubChem BioAssay AID2060906 (Molecular Pharmacology Branch, DTP, NCI, 2025):

System: 485176-168-R4-J1-PDC complex spheroid growth
Test: Anticancer human tumor 485176-168-R4-J1-PDC patient-derived pancreatic adenocarcinoma cell line growth inhibition [RAS]
Conditions: for IC50: curve of first compound; for viability, T/C: stronger effect = lower value
In short: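 Tumour cells grown as complex spheroids with HUVEC endothelial cells and mesenchymal stem cells, treated with RAS pathway inhibitor combinations. Each agent spans half-log steps from near clinical Cmax, or 10 microM where Cmax is unknown.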

[1] = second compound 0.000949 µM, first compound 0.000949 µM
[2] = second compound 0.000949 µM, first compound 0.003 µM
[3] = second compound 0.000949 µM, first compound 0.00949 µM
[4] = second compound 0.000949 µM, first compound 0.03 µM
[5] = second compound 0.000949 µM, first compound 0.0949 µM
[6] = second compound 0.000949 µM, first compound 0.3 µM
[7] = second compound 0.003 µM, first compound 0.000949 µM
[8] = second compound 0.003 µM, first compound 0.003 µM
[9] = second compound 0.003 µM, first compound 0.00949 µM
[10] = second compound 0.003 µM, first compound 0.03 µM
[11] = second compound 0.003 µM, first compound 0.0949 µM
[12] = second compound 0.003 µM, first compound 0.3 µM
[13] = second compound 0.00949 µM, first compound 0.000949 µM
[14] = second compound 0.00949 µM, first compound 0.003 µM
[15] = second compound 0.00949 µM, first compound 0.00949 µM
[16] = second compound 0.00949 µM, first compound 0.03 µM
[17] = second compound 0.00949 µM, first compound 0.0949 µM
[18] = second compound 0.00949 µM, first compound 0.3 µM
[19] = second compound 0.03 µM, first compound 0.000949 µM
[20] = second compound 0.03 µM, first compound 0.003 µM
[21] = second compound 0.03 µM, first compound 0.00949 µM
[22] = second compound 0.03 µM, first compound 0.03 µM
[23] = second compound 0.03 µM, first compound 0.0949 µM
[24] = second compound 0.03 µM, first compound 0.3 µM
[25] = second compound 0.0949 µM, first compound 0.000949 µM
[26] = second compound 0.0949 µM, first compound 0.003 µM
[27] = second compound 0.0949 µM, first compound 0.00949 µM
[28] = second compound 0.0949 µM, first compound 0.03 µM
[29] = second compound 0.0949 µM, first compound 0.0949 µM
[30] = second compound 0.0949 µM, first compound 0.3 µM
[31] = second compound 0.3 µM, first compound 0.000949 µM
[32] = second compound 0.3 µM, first compound 0.003 µM
[33] = second compound 0.3 µM, first compound 0.00949 µM
[34] = second compound 0.3 µM, first compound 0.03 µM
[35] = second compound 0.3 µM, first compound 0.0949 µM
[36] = second compound 0.3 µM, first compound 0.3 µM
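Also: spheroids exposed to compounds for seven days before readout.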
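For viability, T/C in this document: luminescence viability expressed relative to DMSO vehicle wells set as 100%.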

Question: Which results are given for `CC1(C)CCC(Nc2ncc(C(F)(F)F)c(-c3c[nH]c4c(P(C)(C)=O)c(C#N)ccc34)n2)CN1` (centres undefined) + CCn1c(-c2cc(N3CCN(C)CC3)cnc2C(C)OC)c2c3cc(ccc31)-c1csc(n1)CC(NC(=O)C1CC1C)C(=O)N1CCCC(N1)C(=O)OCC(C)(C)C2?
Answer: IC50 (second compound 0.000949 µM): > 300 nM; IC50 (second compound 0.003 µM): > 300 nM; IC50 (second compound 0.00949 µM): 82.5 nM; IC50 (second compound 0.03 µM): 121 nM; IC50 (second compound 0.0949 µM): > 300 nM; IC50 (second compound 0.3 µM): 70 nM; viability, T/C [1]: 94.9%; viability, T/C [2]: 91.1%; viability, T/C [3]: 93%; viability, T/C [4]: 59.2%; viability, T/C [5]: 55.1%; viability, T/C [6]: 49.3%; viability, T/C [7]: 93.5%; viability, T/C [8]: 101%; viability, T/C [9]: 75.3%; viability, T/C [10]: 54.5%; viability, T/C [11]: 52%; viability, T/C [12]: 54.9%; viability, T/C [13]: 84.9%; viability, T/C [14]: 96.3%; viability, T/C [15]: 104%; viability, T/C [16]: 55.8%; viability, T/C [17]: 51.5%; viability, T/C [18]: 46.9%; viability, T/C [19]: 101%; viability, T/C [20]: 92.8%; viability, T/C [21]: 76.5%; viability, T/C [22]: 64.4%; viability, T/C [23]: 49.8%; viability, T/C [24]: 45.8%; viability, T/C [25]: 87.1%; viability, T/C [26]: 76.8%; viability, T/C [27]: 76.2%; viability, T/C [28]: 57.4%; viability, T/C [29]: 61.9%; viability, T/C [30]: 54.8%; viability, T/C [31]: 89.3%; viability, T/C [32]: 93.4%; viability, T/C [33]: 70.5%; viability, T/C [34]: 57.3%; viability, T/C [35]: 47%; viability, T/C [36]: 47.2%

Question: With `CCc1c2c(nc3ccc(O)cc13)-c1cc3c(c(=O)n1C2)COC(=O)[C@]3(O)CC` + CCn1c(-c2cccnc2C(C)OC)c2c3cc(ccc31)N1CCOC(CC(NC(=O)C(C(C)C)N(C)C(=O)C3(F)CCN(C(=O)C#CC(C)(C)N(C)C)CC3)C(=O)N3CCCC(N3)C(=O)OCC(C)(C)C2)C1 as the molecule, how does the IC50 (second compound 0.000949 µM) read?
Answer: 12.7 nM

Question: And the IC50 (second compound 0.003 µM)?
Answer: 8.73 nM

Question: And the IC50 (second compound 0.00949 µM)?
Answer: 15 nM

Question: What about the IC50 (second compound 0.03 µM) of the same molecule?
Answer: 12.5 nM

Question: What about the IC50 (second compound 0.0949 µM) of the same molecule?
Answer: 6.74 nM

Question: And the IC50 (second compound 0.3 µM)?
Answer: 7.31 nM

Question: What about the viability, T/C [1] of the same molecule?
Answer: 89%

Question: What about the viability, T/C [2] of the same molecule?
Answer: 84.4%

Question: What about the viability, T/C [3] of the same molecule?
Answer: 56%

Question: What about the viability, T/C [4] of the same molecule?
Answer: 27.5%

Question: And the viability, T/C [5]?
Answer: 12.2%

Question: And the viability, T/C [6]?
Answer: 5.05%

Question: And the viability, T/C [7]?
Answer: 92.2%

Question: What about the viability, T/C [8] of the same molecule?
Answer: 84.3%

Question: What about the viability, T/C [9] of the same molecule?
Answer: 43%

Question: And the viability, T/C [10]?
Answer: 25.8%

Question: And the viability, T/C [11]?
Answer: 10.7%

Question: And the viability, T/C [12]?
Answer: 7.84%

Question: What about the viability, T/C [13] of the same molecule?
Answer: 89.5%

Question: What about the viability, T/C [14] of the same molecule?
Answer: 96.3%

Question: What about the viability, T/C [15] of the same molecule?
Answer: 63.1%

Question: And the viability, T/C [16]?
Answer: 27.6%

Question: And the viability, T/C [17]?
Answer: 10.5%

Question: What about the viability, T/C [18] of the same molecule?
Answer: 7.04%

Question: And the viability, T/C [19]?
Answer: 96.3%

Question: And the viability, T/C [20]?
Answer: 94.1%

Question: And the viability, T/C [21]?
Answer: 52.5%

Question: And the viability, T/C [22]?
Answer: 29.2%

Question: And the viability, T/C [23]?
Answer: 10.9%

Question: And the viability, T/C [24]?
Answer: 4.84%

Question: And the viability, T/C [25]?
Answer: 91.5%

Question: And the viability, T/C [26]?
Answer: 67.8%

Question: And the viability, T/C [27]?
Answer: 43.4%

Question: What about the viability, T/C [28] of the same molecule?
Answer: 19.7%

Question: What about the viability, T/C [29] of the same molecule?
Answer: 5.98%

Question: What about the viability, T/C [30] of the same molecule?
Answer: 3.35%

Question: And the viability, T/C [31]?
Answer: 68.7%

Question: What about the viability, T/C [32] of the same molecule?
Answer: 64.1%

Question: And the viability, T/C [33]?
Answer: 45.9%

Question: What about the viability, T/C [34] of the same molecule?
Answer: 10.6%

Question: And the viability, T/C [35]?
Answer: 4.63%

Question: What about the viability, T/C [36] of the same molecule?
Answer: 2.53%
